According to patent US8173639B2, “Isoquinolinone derivatives as NK3 antagonists” (H. Lundbeck A/S, priority 2007, dated 2012):

Experiments:
human NK3 receptor [1] = biological target: T1, human NK3 receptor (Homo sapiens, UniProt P29371); experiment: NK3 receptor efficacy and potency assay (FLIPR Calcium 4, BHK cells); assay type: cell-based; conditions: read-out: Potency cIC50
T1 construct: expressed in transfected cells; membrane preparation
T1 sequence (P29371 1-465): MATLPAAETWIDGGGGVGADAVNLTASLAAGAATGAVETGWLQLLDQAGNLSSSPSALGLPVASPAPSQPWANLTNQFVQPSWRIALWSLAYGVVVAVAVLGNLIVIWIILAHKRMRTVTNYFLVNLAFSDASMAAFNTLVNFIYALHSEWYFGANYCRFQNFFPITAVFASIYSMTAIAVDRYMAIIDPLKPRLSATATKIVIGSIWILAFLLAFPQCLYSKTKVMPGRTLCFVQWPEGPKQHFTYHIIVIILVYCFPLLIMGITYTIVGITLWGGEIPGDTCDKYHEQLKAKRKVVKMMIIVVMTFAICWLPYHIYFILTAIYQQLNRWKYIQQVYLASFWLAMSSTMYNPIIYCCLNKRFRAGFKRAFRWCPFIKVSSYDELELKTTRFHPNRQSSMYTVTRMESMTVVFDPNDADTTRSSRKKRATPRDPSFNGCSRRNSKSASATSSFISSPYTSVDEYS
Method: BHK cells stably expressing the human NK3 receptor were seeded in 100 μl media in black walled clear-base 96-wells plates (Costar) aiming at a confluency of 95-100% at the day of assay. The assay was performed according to the FLIPR Calcium 4 Assay kit (Molecular Devices). At the day of the assay, the media was removed and the cells were washed once with the HBSS buffer (Hanks BSS buffer, pH 7.4 containing 20 mM Hepes) before 100 μl of a solution of the calcium assay reagent dissolved in the HBSS buffer containing 2.5 mM probinicid was added to the cells. The plates were incubated for 60 min at 34° C., 10% CO2 before use in the FLIPR for examination of fluorescence.
For efficacy and potency evaluation of compounds, these were diluted in HBSS buffer prior to test. For test of agonist activity, 25 μl of the diluted compound solution was added and the plate was analyzed for 5 minutes in the FLIPR. […] The plates were subsequently analyzed for 5 minutes before the assay was terminated. The maximal increase in fluorescence over background following each ligand addition was determined.

human NK3 receptor [2] = biological target: T1, human NK3 receptor; experiment: NK3 receptor binding assay (SPA-based competition binding, 125I-NKB); conditions: table of Example 10; obtained as described in Example 9; read-out: Affinity Ki
Method: Membranepreparation: BHK cells stably expressing the human NK3 receptor were seeded in harvesting plates in Dulbeccos MEM containing GlutaMax (862 mg/l), 1 mM sodium pyruvate, 10% fetal calf serum, 1% Pen/Strep, 1 mg/ml G418 and were grown at 34° C. in a humidified atmosphere containing 10% CO2. To increase receptor expression, 10 μM trichotatin A was added to the media 24 hours before harvest of the cells at a confluency of app 90%. Prior to the harvesting, the cells were washed twice with PBS without Mg^2+ or Ca^2+ and subsequently scrapped of in 10 ml PBS pr harvesting plate. The cells suspension were centrifuged at 1500×G in three minutes before resuspension in 15 mM Tris-HCl pH 7.5 buffer containing 2 mM MgCl2; 0.3 mM EDTA and 1 mM EGTA (buffer A). The cell suspension was homogenised and subsequently centrifuged at 4000×G in 30 minutes. The membrane-pellet was resuspended in buffer A containing 250 mM sucrose, aliquoted and stored at −80° C.
Affinity assay description: The assay was performed as a SPA-based competition-binding assay in a 50 mM Tris pH 7.4 assay buffer containing 120 mM NaCl, 3 mM MnCl2, 40 μg/ml bacitracin, 2 μg/ml Chymostatin, 1 μg/ml Phosphoramidon and 4 μg/ml Leupeptin. […] The assay plate was subsequently under agitation incubated for 90 min at RT. The plate was centrifugated 10 minutes at 500×G and counted in a topcounter 5 minutes pr well.

[3] = cited from earlier work

| Compound | IC50 (human NK3 receptor [1]) [nM] | Ki (human NK3 receptor [2]) [nM] | effect in clinical trials versus placebo ([3]; in particular on positive symptoms of psychosis) | effect on cognitive behaviour in clinical trials ([3]; schizophrenics) |
| --- | --- | --- | --- | --- |
| CC(=O)N(C)C1(c2ccccc2)CCN(CCC[C@]2(c3ccc(Cl)c(Cl)c3)CCCN(C(=O)c3ccccc3)C2)CC1 [Osanetant, osanetant] |  |  | superior to placebo |  |
| CC[C@H](NC(=O)c1c(CN2CCOCC2)n(-c2ccccc2)c(=O)c2ccccc12)c1ccccc1 [Example 2r, 3-Morpholin-4-ylmethyl-1-oxo-2-phenyl-1,2-dihydro-isoquinoline-4-carboxylic acid ((S)-1-phenyl-propyl)-amide] | 420 | 320 |  |  |
| CC[C@H](NC(=O)c1c(CN2CC(C)OC(C)C2)n(-c2ccccc2)c(=O)c2ccccc12)c1ccccc1 (stereo partly drawn) [Example 2s, 3-(2,6-Dimethyl-morpholin-4-ylmethyl)-1-oxo-2-phenyl-1,2-dihydro-isoquinoline-4-carboxylic acid ((S)-1-phenyl-propyl)-amide] | 340 | 200 |  |  |
| CC[C@H](NC(=O)c1c(O)c(-c2ccccc2)nc2ccccc12)c1ccccc1 [talnetant] |  |  |  | ameliorate the cognitive behaviour of schizophrenics |

Continued by falling IC50 (human NK3 receptor [1]), values first:

| IC50 (human NK3 receptor [1]) [nM] | Ki (human NK3 receptor [2]) [nM] | Compound | effect in clinical trials versus placebo ([3]; in particular on positive symptoms of psychosis) | effect on cognitive behaviour in clinical trials ([3]; schizophrenics) |
| --- | --- | --- | --- | --- |
| 300 | 160 | CC[C@H](NC(=O)c1c(CN2Cc3ccccc3C2)n(-c2ccccc2)c(=O)c2ccccc12)c1ccccc1 [Example 2bn, 3-(1,3-Dihydro-isoindol-2-ylmethyl)-1-oxo-2-phenyl-1,2-dihydro-isoquinoline-4-carboxylic acid ((S)-1-phenyl-propyl)-amide] |  |  |
| 220 | 160 | CC[C@H](NC(=O)c1c(CN2CCc3ccccc3C2)n(-c2ccccc2)c(=O)c2ccccc12)c1ccccc1 [Example 2bg, 3-(3,4-Dihydro-1H-isoquinolin-2-ylmethyl)-1-oxo-2-phenyl-1,2-dihydro-isoquinoline-4-carboxylic acid ((S)-1-phenyl-propyl)-amide] |  |  |
| 49 | 76 | CC[C@H](NC(=O)c1c(CN2CCCNCC2)n(-c2ccccc2)c(=O)c2ccccc12)c1ccccc1 [Example 2cz, 3-[1,4]Diazepan-1-ylmethyl-1-oxo-2-phenyl-1,2-dihydro-isoquinoline-4-carboxylic acid ((S)-1-phenyl-propyl)-amide] |  |  |
